Assay results published in patent US12076320B2, “Diarylpyrazole compound, composition comprising same, and use thereof” (Shenzhen TargetRx, Inc., priority 2018, dated 2024).
pIC50: −log10 of the molar value.

How the values were obtained:
[1] = Metabolic stability evaluation in human liver microsomes; format: in vitro ADME; conditions: human liver microsomes 0.5 mg/mL, compound 1 μM; for microsomal CLint at 1 μM / half-life at 1 μM: pH 7.4; for microsomal CLint at 1 μM: read-out: HLM CL; for half-life at 1 μM: read-out: HLM T1/2
Protocol: (§1) Microsome assay: human liver microsomes (HLM): 0.5 mg/mL, Xenotech; rat liver microsomes (RLM): 0.5 mg/mL, Xenotech; coenzyme (NADPH/NADH): 1 mM, Sigma Life Science; magnesium chloride: 5 mM, 100 mM phosphate buffer (pH 7.4).
(§2) Preparation of stock solutions: Powders of the example compounds and the control compound were accurately weighed and dissolved in DMSO to 5 mM respectively.
(§3) Preparation of phosphate buffer (100 mM, pH 7.4): A pre-prepared 0.5 M potassium dihydrogen phosphate solution (150 mL) was mixed with a pre-prepared 0.5 M dibasic potassium phosphate solution (700 mL). The pH of the mixture was adjusted to 7.4 with a 0.5 M dibasic potassium phosphate solution. The mixture was diluted 5-fold with ultrapure water before use, and magnesium chloride was added to obtain a phosphate buffer (100 mM) containing 100 mM potassium phosphate, 3.3 mM magnesium chloride, pH 7.4.
(§4) A NADPH regeneration system solution (containing 6.5 mM NADP, 16.5 mM G-6-P, 3 U/mL G-6-P D, 3.3 mM magnesium chloride) was prepared and placed on wet ice before use.
(§5) Preparation of stop solution: an acetonitrile solution containing 50 ng/mL propranolol hydrochloride and 200 ng/mL tolbutamide (internal standard). 25057.5 μL of phosphate buffer (pH 7.4) was added into a 50 mL centrifuge tube, to which 812.5 μL of human liver microsomes were then added and mixed well to obtain a liver microsome dilution with a protein concentration of 0.625 mg/mL. 25057.5 μL of phosphate buffer (pH 7.4) was added into a 50 mL centrifuge tube, to which 812.5 μL of SD rat liver microsomes were then added and mixed well to obtain a liver microsome dilution with a protein concentration of 0.625 mg/mL.
(§6) Incubation of the samples: The stock solutions of the respective compounds were respectively diluted to 0.25 mM with an aqueous solution containing 70% acetonitrile, and used as a working solution, ready for use. 398 μL of the dilutions of human liver microsomes or rat liver microsomes were added to 96-well incubation plates (N=2), respectively, and 2 μL of 0.25 mM working solution was added respectively and nixed.
(§7) Metabolic stability assay: 300 μL of pre-chilled stop solution was added to each well of 96-well deep well plates and placed on ice as stop plates. The 96-well incubation plates and NADPH regeneration system were placed in a 37° C. water bath, shaken at 100 rpm and pre-incubated for 5 min. 80 μL of incubation solution was taken out from each well of the incubation plates, added to the stop plates, mixed well, and replenished with 20 μL of NADPH regeneration system solution. The resulting mixture was used as a 0-min sample. 80 μL of NADPH regeneration system solution was added to each well of the incubation plates to start the reaction and start counting. […] At 10, 30, and 90 minutes of the reaction, respectively, 100 μL of the reaction solutions were taken out, added to the stop plates, and vortexed for 3 minutes to stop the reaction. The stop plates were centrifuged at 5000×g at 4° C. for 10 min. 100 μL of the supernatant was taken out, added to a 96-well plate pre-added with 100 μL of distilled water, mixed well, and analyzed by LC-MS/MS.
(§8) Data analysis: The peak areas of the corresponding compounds and internal standard were detected by LC-MS/MS system, and the ratio of the peak area of the compounds to the internal standard was calculated.

[2] = Metabolic stability evaluation in rat liver microsomes; format: in vitro ADME, SD rat; conditions: rat liver microsomes 0.5 mg/mL, compound 1 μM; for microsomal CLint at 1 μM / half-life at 1 μM: SD, pH 7.4; for microsomal CLint at 1 μM: read-out: RLM CL; for half-life at 1 μM: read-out: RLM T1/2
Protocol: as §1, §2, §3, §4, §5, §6, §7, §8

[3] = tested on: HT-29 colorectal cancer cell line with BRAF V600E mutation; experiment: Cytotoxicity assay (CTG, 72 hours); format: cell-based; conditions: Homo sapiens, HT-29 cells
Protocol: The cell viability was detected by trypan blue exclusion method to ensure that the cell viability was greater than 90%. The cells were inoculated in a 96-well plate and cultured overnight under the condition of 37° C. and 5% CO2. The 10-fold drug solutions were prepared by a 3.16-fold serial dilution starting from a maximum concentration of 1 μM, resulting in 9 concentrations. 10 μL of the drug solutions were added to each well of the 96-well plate in triplicate, and the incubation was further continued for 72 hours. An equal volume of CTG solution was added to each well, and the cell plate w as shaked on an orbital shaker for 5 minutes to lyse the cells. The cell plate was placed at room temperature for 20 minutes to stabilize the luminescence signal, and the luminescence values were then read on a SpectraMax multi-label microplate reader (MD, 2104-0010A). The data were analyzed with GraphPad Prism 5.0 software, and fitted using the non-linear S-curve regression to obtain a dose-effect curve, from which IC50 values were calculated accordingly.

[4] = at weakly acidic and neutral pH; cited from earlier work

microsomal CLint at 1 μM [1] [µL/min/mg] | half-life at 1 μM [1] [h] | microsomal CLint at 1 μM [2] [µL/min/mg] | half-life at 1 μM [2] [h] | HLM CL [1] [µL/min/mg] | HLM T1/2 [1] [h] | RLM CL [2] [µL/min/mg] | RLM T1/2 [2] [h] | Compound | pIC50 [3] | water-solubility [4]
9.47 | 2.44 | 11.8 | 1.95 |  |  |  |  | [2H]C([2H])([2H])C([2H])(n1cc(-c2ccnc(NC[C@H](C)NC(=O)OC)n2)c(-c2cc(Cl)cc(NS(C)(=O)=O)c2F)n1)C([2H])([2H])[2H] (single isomer, unassigned) [L-1] |  | 
9.07 | 2.55 | 16.8 | 1.38 |  |  |  |  | [2H]C([2H])([2H])OC(=O)N[C@@H](C)CNc1nccc(-c2cn(C(C)C)nc2-c2cc(Cl)cc(NS(C)(=O)=O)c2F)n1 (single isomer, unassigned) [L-2] |  | 
4.87 | 4.75 | 11.3 | 2.04 |  |  |  |  | [2H]C([2H])([2H])OC(=O)N[C@@H](C)CNc1nccc(-c2cn(C([2H])(C([2H])([2H])[2H])C([2H])([2H])[2H])nc2-c2cc(Cl)cc(NS(C)(=O)=O)c2F)n1 (single isomer, unassigned) [L-3] |  | 
12.5 | 1.85 | 16.7 | 1.38 |  |  |  |  | [2H]C([2H])([2H])[C@H](NC(=O)OC)C([2H])([2H])Nc1nccc(-c2cn(C(C)C)nc2-c2cc(Cl)cc(NS(C)(=O)=O)c2F)n1 (single isomer, unassigned) [L-4-S] |  | 
17.3 | 1.33 | 17.4 | 1.33 |  |  |  |  | COC(=O)N[C@@H](C)CNc1nccc(-c2cn(C(C)C)nc2-c2cc(Cl)cc(NS(C)(=O)=O)c2F)n1 [Encorafenib, (S)-methyl (1-((4-(3-(5-chloro-2-fluoro-3-(methylsulfonamido)phenyl)-1-isopropyl-1H-pyrazol-4-yl)pyrimidin-2-yl)amino)propan-2-yl)carbamate, reference compound] | 8.05 | poor
 |  |  |  | 5.69 | 4.0628 | 10.22 | 2.2595 | [2H]C([2H])([2H])[C@H](NC(=O)OC)C([2H])([2H])Nc1nccc(-c2cn(C([2H])(C([2H])([2H])[2H])C([2H])([2H])[2H])nc2-c2cc(Cl)cc(NS(C)(=O)=O)c2F)n1 [L-5-S, (S)-methyl (1-((4-(3-(5-chloro-2-fluoro-3-(methylsulfonamido)phenyl)-1-(propan-2-yl-d7)-3-1H-pyrazol-4-yl)pyrimidin-2-yl)amino)propan-2-yl-1,1,3,3,3-d5)carbamate] |  | 
